Source: patent US20070191372A1, “Dna-targeted benzotriazine 1,4-dioxides and their use in cancer therapy” (Auckland Uniservices Limited, priority 2002, published 2007)
Counter-ions that a name gives are not always drawn.

Key:
[1] = system: human colon carcinoma HT-29; test: Proliferation assay (IC50) under aerobic and hypoxic conditions, HT-29; type: cell-based; settings: for RHT: HT-29, ratio Tirapazamine/test compound under hypoxic conditions; for HCR: HT-29, ratio of IC50 under aerobic and hypoxic conditions; for IC50: Homo sapiens, HT-29, hypoxic (anoxia <0.001% O2), 4 h exposure
Method: (§1) Evaluation of the Cytotoxicity of Compounds by Proliferation Assay (IC50) Under Aerobic and Hypoxic Conditions.
(§2) Compounds representative of the invention were evaluated under both aerobic and hypoxic conditions in a proliferation assay (IC50), using two cell lines: human colon carcinoma HT-29, and human cervical carcinoma SiHa.
(§3) Drug exposures were performed in 96-well plates (Nunc) using either a 37° C. humidified incubator (20% O2, 5% CO2) or in the incubator compartment (37° C.) of an anaerobic chamber (Shell Lab) where palladium catalyst scrubbed gas (90% N2, 5% H2, 5% CO2) ensures severe anoxia (<0.001% O2). For each experiment, compounds were simultaneously tested under both oxic and hypoxic conditions against the HT-29 cell line and included TPZ as an independent internal control at the front and back of the assay (n=2). Final data was pooled from a series of seven independent experiments and is calculated using inter-experimental means. In all cases, 8-methyl-5-nitroquinoline was used as a second internal control to confirm that strict hypoxia was present during the experiment. (Siim et al. Br. J. Cancer 1994, 70, 596-603). Cell cultures were grown in αMEM (Gibco) containing 5% heat inactivated FCS and maintained in exponential growth phase. For each individual experiment an appropriate number of cells were seeded (HT-29=1000) into wells in αMEM÷10% FCS+10 mM added glucose+100 μM 2′-deoxycytidine (2′dCyd), and allowed to attach for 3 h. High glucose (final concentration 17 mM) and the presence of 2′-dCyd minimize hypoxia-induced cell cycle arrest. Replicates were then exposed to BTOs, using 2-fold serial dilutions in triplicate, for a further 4 h. Subsequently cells were washed free of compound using complete media (without glucose/2′-dCyd) and allowed to grow for 5 (oxic) or 6 (anoxic) days. Plates were stained as described previously (Wilson et al., J. Med. Chem. 1989, 32, 31-38) and IC50 values determined.
(§4) IC50=The concentration of drug (in micromolar) to reduce viable cell numbers to 50% of those of control cell cultures grown under the same conditions but not exposed to drug
(§5) RHT=Relative hypoxic toxicity is defined as the ratio of concentrations of Tirapazamine/test compound to give equal cell killing under hypoxic conditions.
(§6) HCR=Hypoxic cytotoxicity ratio is defined as the ratio of drug concentrations under aerobic and hypoxic condition to produce equal cell survival (50%) determined by proliferation assay

murine SCCVII = test: Clonogenic assay under aerobic and hypoxic conditions, SCCVII; type: cell-based; settings: SCVIII cells; for IC90: Mus musculus, 1 h, hypoxic, 60 min drug exposure, SN (hypoxic), read-out: C10 hypoxic; for HCR: ratio of C10 under aerobic and hypoxic conditions; for RHT: ratio of hypoxic TPZ C10 to hypoxic compound C10
Method: Evaluation of the Cytotoxicity of Compounds by Clonogenic Assay Under Aerobic and Hypoxic Conditions.
Compounds representative of the invention were evaluated under both aerobic and hypoxic conditions in clonogenic assays, using three cell lines: human colon carcinoma HT-29, murine SCCVII, and human lung adenocarcinoma LXFL. Clonogenic survival was determined using aerobic and hypoxic SCCVII cell suspensions. Drug exposures were performed using continuously stirred and gassed single cell suspensions (10^6 cells/mL) at 37° C., equilibrated with 5% CO2 in air or N2 for 60 min before drug addition. After a 60 min drug exposure cells were washed by centrifugation and plated to determine colony formation Cytotoxicity was measured as the concentration required to reduce plating efficiency to 10% of controls (C10). The hypoxic cytotoxicity ratio (HCR) was determined as the ratio of the C10 values under aerobic and hypoxic conditions. The relative hypoxic toxicity (RHT) was determined as the ratio of hypoxic TPZ C10 to hypoxic BTO C10. Abbreviations used in Table 2 are:
C10=The concentration of drug (in micromolar) to reduce viable cell numbers to 10% of those of control cell cultures grown under the same conditions but not exposed to drug
as §5
HCR=Hypoxic cytotoxicity ratio is defined as the ratio of drug concentrations under aerobic and hypoxic condition to produce equal cell survival (10%) determined by clonogenic assay

[2] = system: human cervical carcinoma SiHa; test: Proliferation assay (IC50) under aerobic and hypoxic conditions, SiHa; type: cell-based; settings: for IC50: Homo sapiens, hypoxic, 4 h exposure; for RHT: ratio Tirapazamine/test compound under hypoxic conditions; for HCR: ratio of IC50 under aerobic and hypoxic conditions
Method: as §1, §2, §3, §4, §5, §6

melting point	IC50 [1]	SMILES	RHT [1]	HCR [1]	also measured
173 °C		CN(CCCNC(=O)c1cccc2nc3ccccc3nc12)CCCc1n[n+]([O-])c2ccccc2[n+]1[O-] (as salt: hydrochloride) [Compound 63, N-{3-[[3-(1,4-Dioxido-1,2,4-benzotriazin-3-yl)propyl](methyl)amino]propyl}-1-phenazinecarboxamide]			
	222 nM	Cc1ccc2c(c1)[n+]([O-])c(NCCCN(C)CCCNC(=O)c1cccc3cc4ccccc4nc13)n[n+]2[O-] [Compound 85, N-[3-(Methyl{3-[(6-methyl-1,4-dioxido-1,2,4-benzotriazin-3-yl)amino]propyl}amino)propyl]-4-acridinecarboxamide]	26	134	
	34 nM	CN(CCCNC(=O)c1cccc2nc3ccccc3nc12)CCCc1n[n+]([O-])c2ccccc2[n+]1[O-] [Compound 63, N-{3-[[3-(1,4-Dioxido-1,2,4-benzotriazin-3-yl)propyl](methyl)amino]propyl}-1-phenazinecarboxamide]	167	129	
	79 nM	O=C(NCCNCCNc1n[n+]([O-])c2ccccc2[n+]1[O-])c1cccc2cc3ccccc3nc12 [Compound 37, N-[2-({2-[(1,4-Dioxido-1,2,4-benzotriazin-3-yl)amino]ethyl}amino)ethyl]-4-acridinecarboxamide]	74	160	
	180 nM	CN(CCNC(=O)c1cccc2cc3ccccc3nc12)CCNc1n[n+]([O-])c2ccccc2[n+]1[O-] [Compound 95, N-{2-[{2-[(1,4-Dioxido-1,2,4-benzotriazin-3-yl)amino]ethyl}(methyl)amino]ethyl}-4-acridinecarboxamide]	71	74	IC90 (murine SCCVII): 1000 nM; HCR (murine SCCVII): 400; RHT (murine SCCVII): 11; IC50 [2]: 76 nM; RHT [2]: 48; HCR [2]: 89
196 to 198 °C		O=C(NCCCCCCNc1n[n+]([O-])c2ccccc2[n+]1[O-])c1ccnc2ccccc12 [Compound 13, N-{6-[(1,4-Dioxido-1,2,4-benzotriazin-3-yl)amino]hexyl}-4-quinolinecarboxamide]			
168 to 170 °C		O=C(NCCOCCNc1n[n+]([O-])c2ccccc2[n+]1[O-])c1cccc2cccnc12 [Compound 24, N-(2-{2-[(1,4-Dioxido-1,2,4-benzotriazin-3-yl)amino]ethoxy}ethyl)-8-quinolinecarboxamide]			
128 to 130 °C		O=C(NCCOCCNc1n[n+]([O-])c2ccccc2[n+]1[O-])c1cccc2ccc(-c3ccncc3)nc12 [Compound 26, N-(2-{2-[(1,4-Dioxido-1,2,4-benzotriazin-3-yl)amino]ethoxy}ethyl)-2-(4-pyridinyl)-8-quinolinecarboxamide]			
163 to 165 °C		CN(CCNC(=O)c1cccc2nc3ccccc3nc12)CCNc1n[n+]([O-])c2ccccc2[n+]1[O-] [Compound 97, N-{2-[{2-[(1,4-Dioxido-1,2,4-benzotriazin-3-yl)amino]ethyl}(methyl)amino]ethyl}-1-phenazinecarboxamide]			
192 °C		O=C(NCCCNc1n[n+]([O-])c2ccccc2[n+]1[O-])c1cccc2cc3ccccc3nc12 (as salt: hydrochloride) [Compound 17, N-{3-[(1,4-Dioxido-1,2,4-benzotriazin-3-yl)amino]propyl}-4-acridinecarboxamide]			
118 to 122 °C		Cc1ccc2c(c1)[n+]([O-])nc(NCCCN(C)CCCNC(=O)c1cccc3nc4ccccc4nc13)[n+]2[O-] [Compound 76, N-[3-(Methyl{3-[(7-methyl-1,4-dioxido-1,2,4-benzotriazin-3-yl)amino]propyl}amino)propyl]-1-phenazinecarboxamide]			
119 to 122 °C		Cc1ccc2c(c1)[n+]([O-])nc(NCCCNCCCNC(=O)c1cccc3nc4cccc(C)c4nc13)[n+]2[O-] [Compound 77, 9-Methyl-N-[3-({3-[(7-methyl-1,4-dioxido-1,2,4-benzotriazin-3-yl)amino]propyl}amino)propyl]-1-phenazinecarboxamide]			
196 to 198 °C		O=C(NCCCCCCNc1n[n+]([O-])c2ccccc2[n+]1[O-])c1cccc2cc3ccccc3nc12 [Compound 12, N-{6-[(1,4-Dioxido-1,2,4-benzotriazin-3-yl)amino]hexyl}-4-acridinecarboxamide]			
183 to 186 °C		Cc1cccc2nc3cccc(C(=O)NCCCNCCCNc4n[n+]([O-])c5ccccc5[n+]4[O-])c3nc12.Cl			
111 to 114 °C		Cc1ccc2c(c1)[n+]([O-])c(NCCCN(C)CCCNC(=O)c1cccc3nc4ccccc4nc13)n[n+]2[O-] [Compound 87, N-[3-(Methyl{3-[(6-methyl-1,4-dioxido-1,2,4-benzotriazin-3-yl)amino]propyl}amino)propyl]-1-phenazinecarboxamide]			
	226 nM	Cc1cccc2cc3cccc(C(=O)NCCCN(C)CCCNc4n[n+]([O-])c5ccccc5[n+]4[O-])c3nc12 [Compound 44, N-{3-[{3-[(1,4-dioxido-1,2,4-benzotriazin-3-yl)amino]propyl}(methyl)amino]-propyl}-5-methyl-4-acridinecarboxamide]	25.7	72.7	IC90 (murine SCCVII): 160 nM; HCR (murine SCCVII): >187; RHT (murine SCCVII): 56.3
	124 nM	COCCOc1ccc2c(c1)[n+]([O-])nc(NCCCN(C)CCCNC(=O)c1cccc3cc4ccccc4nc13)[n+]2[O-] [Compound 55, N-{3-[(3-{[7-(2-Methoxyethoxy)-1,4-dioxido-1,2,4-benzotriazin-3-yl]amino}propyl)(methyl)amino]propyl}-4-acridinecarboxamide]	47	97	IC90 (murine SCCVII): 1100 nM; HCR (murine SCCVII): 63.6; RHT (murine SCCVII): 10; IC50 [2]: 50 nM; RHT [2]: 72; HCR [2]: 124
	21 nM	CN(CCCNC(=O)c1cccc2cc3ccccc3nc12)CCCc1n[n+]([O-])c2ccccc2[n+]1[O-] [Compound 62, N-{3-[[3-(1,4-dioxido-1,2,4-benzotriazin-3-yl)propyl](methyl)amino]propyl}-4-acridinecarboxamide]	274	157	
	517 nM	CN(CCCNC(=O)c1cccc2cccnc12)CCCNc1n[n+]([O-])c2ccccc2[n+]1[O-] [Compound 42, N-{3-[{3-[(1,4-Dioxido-1,2,4-benzotriazin-3-yl)amino]propyl}(methyl)amino]propyl}-8-quinolinecarboxamide]	11.2	86.2	
	113 nM	CN(CCCNC(=O)c1cccc2ccc(-c3ccncc3)nc12)CCCNc1n[n+]([O-])c2ccccc2[n+]1[O-] [Compound 43, N-{3-[{3-[(1,4-dioxido-1,2,4-benzotriazin-3-yl)amino]propyl}(methyl)amino]-propyl}-2-(4-pyridyl)-8-quinolinecarboxamide]	51.4	119	IC90 (murine SCCVII): 1400 nM; HCR (murine SCCVII): 10; RHT (murine SCCVII): 5.7
		O=C(NCCCNc1n[n+]([O-])c2ccccc2[n+]1[O-])c1cccc2cc3ccccc3nc12 [Compound 17, N-{3-[(1,4-Dioxido-1,2,4-benzotriazin-3-yl)amino]propyl}-4-acridinecarboxamide]			IC90 (murine SCCVII): 4800 nM; HCR (murine SCCVII): >6.3; RHT (murine SCCVII): 1.94
